How the values were obtained:
syndecan-1 = assay: Plasma syndecan-1 (glycocalyx damage) after CLP sepsis, ELISA; assay type: in vivo, Male C57BL/6 mice; details: 6 h after CLP; colivelin 100 or 200 μg/kg i.p. at 1 h after CLP; vs vehicle; dose-independent
Excerpt: The investigation conformed to the National Institutes of Health Guide for the Care and Use of Laboratory Animals (Eighth Edition, 2011) and was approved by the Institutional Animal Care and Use Committee of the Cincinnati Children's Hospital Medical Center. Male C57BL/6 mice were obtained from Charles River Laboratories International, Inc. (Wilmington, MA). Mice were used at 3-5 months of age to mimic the equivalent for human ranges from 20-25 years (29). Male mice only were chosen for the experimentation to avoid interference from female hormonal fluctuations in sepsis responses during the estrous cycle. Mice were housed in pathogen-free conditions under a 10-h light/14-h dark cycle with free access to food and water. […] Plasma levels of tumor necrosis factor-α (TNFα), interleukin (IL)-1β, IL-6, IL-10, keratinocytes-derived chemokine (KC), and macrophage inflammatory proteins (MIP-1α) were used as indices of the systemic inflammatory response and were evaluated by a commercially available multiplex array system (Milliplex, Millipore Corporation, Billerica, MA). Plasma levels of endoglin, intercellular adhesion molecule-1 (ICAM-1), P-selectin, proprotein convertase subtilisin/kexin type 9 (PCSK9), and angiopoietin-2 (Ang 2) were used as indices of endothelial injury and were evaluated by a commercially available multiplex array system (R&D Systems, Minneapolis, MN). […]

AMPK = assay: Western blot of AMPKα and pAMPKα in thoracic aorta cytosol after CLP; assay type: in vivo, Male C57BL/6 mice; details: 6 h after CLP; colivelin i.p. at 1 h after CLP; vs vehicle; dose-independent
Excerpt: The investigation conformed to the National Institutes of Health Guide for the Care and Use of Laboratory Animals (Eighth Edition, 2011) and was approved by the Institutional Animal Care and Use Committee of the Cincinnati Children's Hospital Medical Center. Male C57BL/6 mice were obtained from Charles River Laboratories International, Inc. (Wilmington, MA). Mice were used at 3-5 months of age to mimic the equivalent for human ranges from 20-25 years (29). Male mice only were chosen for the experimentation to avoid interference from female hormonal fluctuations in sepsis responses during the estrous cycle. Mice were housed in pathogen-free conditions under a 10-h light/14-h dark cycle with free access to food and water. […]
Subcellular fractionation was performed using a centrifugation model. […] The Bradford protein assay was then used for quantitative determination of total proteins.
Cytosol content of total AMPKα1/α2 and its phosphorylated form pAMPKα1/α2 (Santa Cruz Biotechnology, Dallas, TX, USA), cytosol and nuclear content of STAT3 and its phosphorylated forms pSTAT3(Tyr705) and pSTAT3(Ser727) (Cell Signaling Technology, Danvers, MA, USA) were determined by immunoblot analyses; β-actin was concomitantly probed with mouse anti-β-actin (Santa Cruz Biotechnology) as a loading control for both cytosol and nuclear proteins. […] The immunoreaction was detected by near-infrared fluorescence. […]

**Q.** For Colivelin (SALLRSIPAPAGASRLLLLTGEIDLP), which “Levels of plasma syndecan-1” value (syndecan-1) is on record?
**A.** Its value is “significantly decreased”.

**Q.** And the “Ratio of the phosphorylated/total forms of AMPKα (p-AMPKα/AMPKα), cytosol of thoracic aortas” value (AMPK)?
**A.** Its value is “significantly increased”.
